# Where “and” joins values, the source holds several entries; their conditions need not be identical. Equal values may be shown once.
# What was measured:
# Male Fischer 344 rats = assay: Active Avoidance Test (conditioned avoidance response), oral treatment; assay type: in vivo, rat; details: for ED50 / effect on avoidance responses: oral; for ED50: 60 minutes prior to the test, rat, avoidance rate variable, read-out: ED50 (dose reducing avoidance responses by 50% compared to basal values); for effect on avoidance responses: over the active doses tested (ST1469 0.75-6 mg/kg; ST2087 2-8 mg/kg; ST2472 0.5-2 mg/kg)
# Description: Evaluation of the Antipsychotic Potency of ST1469 and ST1899 and their Respective Desmethyl Derivatives ST2087 and ST2472. Effect of Treatment in the Active Avoidance Test.
# The administration of incremental doses of an antipsychotic drug in the rat causes the inhibition of the avoidance response and an increase in the number of escape responses without any increase in non-responses (failures). This modification of the avoidance behaviour of the animals is characteristic of the effect of the administration of a compound with antipsychotic activity, which selectively blocks the conditioned response within given dosage ranges. This behavioural assessment makes it possible to detect and determine the antipsychotic capacity of a product.
# Male Fischer 344 rats weighing 180 g (Charles River) were used. The products ST1469 and ST2087 were administered to the animals orally, 60 minutes prior to the test. The product ST1469 was administered at doses of 0.75 mg/5 ml/kg (1.84 μmol/kg), 1.5 mg/5 ml/kg (3.69 μmol/kg), 3 mg/5 ml/kg (7.37 μmol/kg), and 6.0 mg/5 ml/kg (14.7 μmol/kg).
# For the product ST2087 the following doses were used: 2 mg/5 ml/kg (6.25 μmol/kg), 3 mg/5 ml/kg (9.38 μmol/kg), 4 mg/5 ml/kg (12.50 μmol/kg), 6 mg/5 ml/kg ([…]) and 8 mg/5 ml/kg (25.01 μmol/kg).
# To perform the avoidance behaviour assessment test, a piece of equipment (Ugo Basile) was used consisting of a plastic cage divided into two compartments by a partition wall with an opening in it allowing communication between the two sectors. Each of the two sectors can be illuminated by a 10-Watt lamp placed above a plexiglass cover covering the cage. A programming device permits the regulation of the duration and frequency of the un-conditioned and discriminatory stimuli, and a computerised system acquires the experimental data. During the study the discriminatory stimulus (light was delivered 3 seconds prior to the unconditioned stimulus (0.3 mA electric shock for 4 seconds). One test per minute was performed in each session making a total of 20 tests per day. One session per day administered.
# The procedure consists in a 1 minute period of familiarisation of the rats in the test cage, followed by the series of tests the start of which is signalled by the light stimulus; the discriminatory stimulus is followed, a few seconds later, by the administration of an electric shock. The rats can avoid the shock by escaping into the adjoining compartment. The responses produced after switching on the light and before the electric shock interrupt the discriminatory stimulus and are considered “avoidances”; the responses produced during the shock period terminate both the discriminatory stimulus and the unconditioned stimulus and are considered “escapes”; non-avoidances are considered “failures”.
# Prior to the treatment with the study compounds, the animals were selected in relation to their ability to acquire the task. Admitted to the test assessing the effect of treatment were those rats that produced at least 75% of avoidances in the basal tests.
# The results were expressed as means and standard errors. On the basis of the number of conditioned responses (avoidances), the dose of product capable of reducing the value of this variable by 50% (ED50) compared to basal values was calculated by means of non-linear regression using the GraphPad Prism data analysis program.
# [1] = In vitro metabolic stability / metabolic profile in rat hepatic microsomes; assay type: in vitro ADME, Rat (Sprague Dawley); details: for metabolic profile (metabolites formed): rat hepatic microsomes 0.5 mg/ml, 10 μg/ml test item, 37° C. up to 120 minutes
# Protocol: (§1) In this study the metabolic profiles of ST1899 and its metabolite ST2472 were determined in rat, mouse and monkey microsomes.
# (§2) ST1899 and ST2472 were separately incubated with the hepatic microsomes. Separate experiments were carried out for each animal species investigated. For each experiment, in addition to the test item, 7-ethoxycoumarin (Sigma-Aldrich) was also incubated as a probe for evaluating the metabolic activity of the microsomes: 7-hydroxycoumarin was identified on the basis of the retention times in comparison with those of synthesized standard and used as marker of oxidative metabolism Both the test item and the 7-ethoxycoumarin were incubated at 37° C. up to 120 minutes.
# (§3) MgCl2, β-D-glucose-6-phosphate, βNADP and Glucose-6-phosphate dehydrogenase were used for preparing the NADPH regenerating solution (NRS). 250 μl of 0.1 M pH 7.4 KH2PO4 buffer, 100 μl of NRS and 50 μl of test item (or 7-ethoxycoumarin) standard solution were added to 2 ml Eppendorf test tubes. In the samples, incubated either without microsomes or test items, an equal volume of 0.1 M pH 7.4 KH2PO4 buffer was added.
# (§4) The reaction was started by adding 100 μl of the microsomal suspension to the samples and stopped at selected times by adding 500 μl of methanol. Samples were shaken and centrifuged at 8000 RPM for 10 minutes at 4° C. Supernatants were used for the HPLC analysis. 7-ethoxycoumarin, ST1899 and ST2472 were analyzed according to the HPLC methods described below.
# [2] = In vitro metabolic stability / metabolic profile in mouse hepatic microsomes; assay type: in vitro ADME, Mouse (CD1); details: for metabolic profile (metabolites formed): mouse hepatic microsomes 0.5 mg/ml, 10 μg/ml test item, 37° C. up to 120 minutes
# Protocol: as §1, §2, §3, §4
# [3] = In vitro metabolic stability / metabolic profile in monkey hepatic microsomes; assay type: in vitro ADME, Monkey (Cynomolgus); details: for metabolic profile (metabolites formed): monkey hepatic microsomes 0.5 mg/ml, 10 μg/ml test item, 37° C. up to 120 minutes
# Protocol: as §1, §2, §3, §4
# [4] = Pharmacokinetics after oral administration of a 60 μmol/kg dose in the rat; assay type: in vivo
# Description: Pharmacokinetics of the Compound ST1469 and its Corresponding Des Methyl Derivative ST2087
# Effect of the Oral Administration of a 60 μmol/kg Dose of Each Product in the Rat
# Administration of ST1469 in the Rat (Table 1).
# Administration of ST2087 in the Rat (Table 1)
# [5] = 60 umol/kg, analyte = administered product, oral 60 μmol/kg, rat, plasma, mean
metabolic stability compared with ST1899 ([1]; rat hepatic microsomes),metabolic profile (metabolites formed) [1],metabolic stability compared with ST1899 ([2]; mouse hepatic microsomes),metabolic profile (metabolites formed) [2],metabolic stability compared with ST1899 ([3]; monkey hepatic microsomes),"AUC [4, 5] [µM·h]","Cmax [4, 5] [µM]","half-life [4, 5] [min]","Tmax ([4]; rat, plasma, po, 60 umol/kg, analyte = administered product, oral 60 μmol/kg, mean) [h]",SMILES,effect on behaviour of the animals (Male Fischer 344 rats; ST2472 at 0.25 mg/kg (0.88 μmol/kg)),ED50 (Male Fischer 344 rats),effect on avoidance responses (Male Fischer 344 rats),metabolic profile (metabolites formed) [3],"concentrations at the systemic level when administered as such ([4]; oral ST2087 60 μmol/kg versus ST2087 formed after ST1469, rat)"
metabolically more stable than ST1899,almost exclusively metabolized to M2,metabolically more stable than ST1899,metabolized almost exclusively to M2,metabolically more stable than ST1899,–,–,–,–,"C1=C(N2CCNCC2)c2ccccc2Sc2cccn21 [ST2472, 9-Piperazin-1-yl-pyrrolo[2,1-b][1,3]benzothiazepine]",does not significantly modify the behaviour of the animals,1.43 mg/kg and 5.05 µmol/kg,causes a progressive reduction of the avoidance responses and an increase in escapes,the main metabolite obtained was M3,–
–,–,–,–,–,32.2,4.09,264,≤ 2,"Clc1ccc2c(c1)C(N1CCNCC1)Cn1cccc1S2 (racemic) [ST2087, (±)-7-chloro-9-(piperazin-1-yl)-9,10-dihydropyrrolo[2,1-b][1,3]-benzothiazepine]",–,3.27 mg/kg and 10.2 µmol/kg,capable of reducing the production of avoidance responses,–,much higher concentrations than those measured after its formation as a result of administration of ST1469
–,extensively metabolized to ST2472,–,metabolized mainly to M1,–,–,–,–,–,"CN1CCN(C2=Cn3cccc3Sc3ccccc32)CC1 [ST1899, 9-(4-methylpiperazin-1-yl)-pyrrolo[2,1-b]-[1,3]benzothiazepine, reference compound]",–,1.09 mg/kg and 3.66 µmol/kg,–,metabolized to ST2472 and to the metabolites M3 and M4,–

# Source: patent US7713956B2, “Dealkylated derivatives of pyrrolo[2,1-b]benzothiazepines with atypical antipsychotic activity” (Sigma-Tau Industrie Farmaceutiche Riunite S.p.A., priority 2004, dated 2010)
